Reference: PubChem BioAssay (NCI)
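Protocol summary: plate cells (96-well), add compound at 5 concentrations, incubate 48 h, interpolate endpoints linearly. TGI marks complete inhibition of growth.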

Key:
Assay in all cases: inhibition of tumour cell growth, NCI panel, 48 h
[1] = system: PC-3 prostate
[2] = system: COLO 205 colon
[3] = system: OVCAR-5 ovarian
[4] = system: UO-31 renal
[5] = system: CCRF-CEM leukemia
[6] = system: HCT-116 colon
[7] = system: SF-295 CNS
[8] = system: EKVX NSCLC
[9] = system: 786-0 renal
[10] = system: NCI-H23 lung
[11] = system: NCI-H226 lung
[12] = system: RPMI-8226 leukemia
[13] = system: UACC-257 melanoma
[14] = system: HT29 colon
[15] = system: M14 melanoma
[16] = system: SN12C renal
[17] = system: ACHN renal
[18] = system: NCI/ADR-RES ovarian
[19] = system: SK-MEL-28 melanoma
[20] = system: HOP-92 NSCLC
[21] = system: SW-620 colon
[22] = system: MCF7 breast
[23] = system: HCT-15 colon
[24] = system: BT-549 breast
[25] = system: MDA-MB-435
[26] = system: A549 NSCLC
[27] = system: CAKI-1 renal
[28] = system: DU-145 prostate
[29] = system: MDA-N
[30] = system: LOX IMVI melanoma
[31] = system: UACC-62 melanoma
[32] = system: SK-MEL-5 melanoma
[33] = system: T-47D breast
[34] = system: IGROV1 ovarian
[35] = system: NCI-H460 lung
[36] = system: SR leukemia
[37] = system: SNB-19 CNS
[38] = system: HCC-2998 colon
[39] = system: OVCAR-3 ovarian
[40] = system: SNB-75 CNS
[41] = system: SF-539 CNS
[42] = system: SK-OV-3 ovarian
[43] = system: SK-MEL-2 melanoma
[44] = system: MOLT-4 leukemia
[45] = system: U251 CNS
[46] = system: A498 renal
[47] = system: OVCAR-8 ovarian
[48] = system: K-562 leukemia
[49] = system: HOP-62 NSCLC
[50] = system: KM12 colon
[51] = system: NCI-H522 lung
[52] = system: MDA-MB-231 breast
[53] = system: SF-268 CNS
[54] = system: TK-10 renal
[55] = system: MALME-3M melanoma
[56] = system: OVCAR-4 ovarian
[57] = system: RXF 393 renal

With CCOC(=O)c1c(O)cc(=O)[nH]c1N1CCOCC1 the TGI [1] was over 100 µM, the TGI [2] was over 100 µM and the TGI [3] was over 100 µM. The TGI [4] was over 100 µM, the TGI [5] was over 100 µM and the TGI [6] was over 100 µM. For the same compound, the TGI [7] was over 100 µM, the TGI [8] was over 100 µM and the TGI [9] was over 100 µM. For the same compound, the TGI [10] was over 100 µM, the TGI [11] was over 100 µM and the TGI [12] was over 100 µM. It also gave a TGI [13] of over 100 µM, a TGI [14] of over 100 µM and a TGI [15] of over 100 µM. The TGI [16] was over 100 µM, the TGI [17] was over 100 µM and the TGI [18] was over 100 µM. The TGI [19] was over 100 µM, the TGI [20] was over 100 µM and the TGI [21] was over 100 µM. It also gave a TGI [22] of over 100 µM, a TGI [23] of over 100 µM and a TGI [24] of over 100 µM. It also gave a TGI [25] of over 100 µM, a TGI [26] of over 100 µM and a TGI [27] of over 100 µM. For the same compound, the TGI [28] was over 100 µM, the TGI [29] was over 100 µM and the TGI [30] was over 100 µM. It also gave a TGI [31] of over 100 µM, a TGI [32] of over 100 µM and a TGI [33] of over 100 µM. The TGI [34] was over 100 µM, the TGI [35] was over 100 µM and the TGI [36] was over 100 µM. For the same compound, the TGI [37] was over 100 µM, the TGI [38] was over 100 µM and the TGI [39] was over 100 µM. It also gave a TGI [40] of over 100 µM, a TGI [41] of over 100 µM and a TGI [42] of over 100 µM. For the same compound, the TGI [43] was over 100 µM, the TGI [44] was over 100 µM and the TGI [45] was over 100 µM. The TGI [46] was over 100 µM, the TGI [47] was over 100 µM and the TGI [48] was over 100 µM. For the same compound, the TGI [49] was over 100 µM and the TGI [50] was over 100 µM.
With CC(C)(C)c1cc(COc2cc(COc3ccc(-c4c5c(nc6c4CCc4ccc(-c7c8ccccc8nc8ccccc78)cc4-6)-c4cc(-c6c7ccccc7nc7ccccc67)ccc4CC5)cc3)cc(OCc3cc(C(C)(C)C)cc(C(C)(C)C)c3)c2)cc(C(C)(C)C)c1 the TGI [1] was over 100 µM, the TGI [2] was over 100 µM and the TGI [3] was over 100 µM. The TGI [51] was over 100 µM, the TGI [4] was over 100 µM and the TGI [6] was over 100 µM. It also gave a TGI [7] of over 100 µM, a TGI [8] of over 100 µM and a TGI [9] of over 100 µM. For the same compound, the TGI [10] was over 100 µM, the TGI [11] was over 100 µM and the TGI [52] was over 100 µM. For the same compound, the TGI [12] was over 100 µM, the TGI [13] was over 100 µM and the TGI [15] was over 100 µM. The TGI [16] was over 100 µM, the TGI [17] was over 100 µM and the TGI [18] was over 100 µM. The TGI [19] was over 100 µM, the TGI [20] was over 100 µM and the TGI [22] was over 100 µM. The TGI [23] was over 100 µM, the TGI [24] was over 100 µM and the TGI [25] was over 100 µM. For the same compound, the TGI [26] was over 100 µM, the TGI [27] was over 100 µM and the TGI [28] was over 100 µM. The TGI [29] was over 100 µM, the TGI [53] was over 100 µM and the TGI [31] was over 100 µM. It also gave a TGI [32] of over 100 µM, a TGI [33] of over 100 µM and a TGI [35] of over 100 µM. It also gave a TGI [37] of over 100 µM, a TGI [38] of over 100 µM and a TGI [54] of over 100 µM. The TGI [39] was over 100 µM, the TGI [40] was over 100 µM and the TGI [55] was over 100 µM. For the same compound, the TGI [42] was over 100 µM, the TGI [43] was over 100 µM and the TGI [45] was over 100 µM. For the same compound, the TGI [46] was over 100 µM, the TGI [48] was over 100 µM and the TGI [49] was over 100 µM. The TGI [50] was over 100 µM and the TGI [56] was over 100 µM.
COc1c(-c2ccccc2)oc2c(CP(=O)(OC)OC)cccc2c1=O was tested, and the TGI [1] was over 100 µM, the TGI [2] was over 100 µM and the TGI [3] was over 100 µM. The TGI [51] was over 100 µM, the TGI [4] was 41.9 µM and the TGI [5] was over 100 µM. The TGI [6] was over 100 µM, the TGI [7] was over 100 µM and the TGI [8] was over 100 µM. For the same compound, the TGI [9] was over 100 µM, the TGI [10] was over 100 µM and the TGI [52] was over 100 µM. It also gave a TGI [57] of over 100 µM, a TGI [12] of 53.8 µM and a TGI [13] of over 100 µM. The TGI [15] was over 100 µM, the TGI [16] was over 100 µM and the TGI [22] was over 100 µM. It also gave a TGI [24] of over 100 µM, a TGI [25] of over 100 µM and a TGI [26] of over 100 µM. For the same compound, the TGI [27] was 5.11 µM, the TGI [28] was over 100 µM and the TGI [29] was over 100 µM. For the same compound, the TGI [31] was over 100 µM, the TGI [32] was over 100 µM and the TGI [33] was over 100 µM. The TGI [34] was over 100 µM, the TGI [36] was over 100 µM and the TGI [38] was over 100 µM. It also gave a TGI [54] of over 100 µM, a TGI [39] of over 100 µM and a TGI [55] of over 100 µM. It also gave a TGI [41] of over 100 µM, a TGI [42] of over 100 µM and a TGI [43] of over 100 µM. The TGI [44] was over 100 µM, the TGI [45] was over 100 µM and the TGI [46] was over 100 µM. The TGI [48] was over 100 µM and the TGI [49] was over 100 µM.
